The values below come from paper PMC3205185, “Identification of a Eukaryotic Reductive Dechlorinase and Characterization of Its Mechanism of Action on Its Natural Substrate” (Chemistry & Biology, 2011).

Data set [1] deals with T1, DrcA (ΔNC16NDrcA) (Dictyostelium discoideum, UniProt Q54B85, C54N).
T1 construct: gene DDB_G0293840; ΔNDrcA, lacking the first 38 residues
T1 sequence (Q54B85 39-275 C54N): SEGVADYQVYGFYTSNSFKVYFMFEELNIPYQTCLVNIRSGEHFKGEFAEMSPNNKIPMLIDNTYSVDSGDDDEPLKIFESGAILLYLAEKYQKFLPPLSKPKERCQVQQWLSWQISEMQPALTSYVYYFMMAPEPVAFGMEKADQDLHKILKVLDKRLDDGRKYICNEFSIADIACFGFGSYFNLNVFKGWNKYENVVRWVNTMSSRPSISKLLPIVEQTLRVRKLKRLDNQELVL
Kind of data set: dechlorination assay with purified mutant, TLC and Orbitrap MS of the conjugates. Format: biochemical.

In data set [2] the target is T2, DrcA (DIF-1 dechlorinase) (Dictyostelium discoideum, UniProt Q54B85).
T2 construct: gene DDB_G0293840
T2 sequence (Q54B85 1-275): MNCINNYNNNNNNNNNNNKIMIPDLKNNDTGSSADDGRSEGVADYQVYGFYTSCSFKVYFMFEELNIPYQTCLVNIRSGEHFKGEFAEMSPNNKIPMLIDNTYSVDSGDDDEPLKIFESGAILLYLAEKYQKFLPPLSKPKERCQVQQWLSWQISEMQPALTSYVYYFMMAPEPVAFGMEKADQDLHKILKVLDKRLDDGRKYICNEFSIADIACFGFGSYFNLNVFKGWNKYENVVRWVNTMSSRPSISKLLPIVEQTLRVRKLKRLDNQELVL
Kind of data set: DIF-1 dechlorination assay with TLC, purified protein; further dechlorinated at higher enzyme or longer incubation. The format is biochemical.

Data set [3] has as its target T1, DrcA (ΔNC16NDrcA). Description: TLC time course and Orbitrap MS of products of the purified mutant; further converted to GS-DIF-GS. The format is biochemical.
Substrate in data set [4]: CCCCCC(=O)c1c(O)c(Cl)c(OC)c(Cl)c1O
Description: radioactive [3H]DIF-1 dechlorination assay with TLC, Michaelis-Menten kinetics, purified enzyme (Km). The format is biochemical, Dictyostelium discoideum. The note with it: glutathione glutathione attacks the carbon-chlorine bond to give a GS-DIF conjugate, which is resolved by Cys54.

As usually defined, the Km is the substrate concentration at which the rate is half of its maximum. In general, kcat refers to the number of substrate molecules converted per active site and unit of time at saturation. What is called kcat/Km is the turnover number divided by the Michaelis constant.

Turning to `CCCCCC(=O)c1c(O)c(Cl)c(OC)c(Cl)c1O` [DIF-1], the “dechlorination assay with purified mutant, TLC and Orbitrap MS of the conjugates” value at DrcA (ΔNC16NDrcA) [1] is recorded as “although DIF-1 was consumed in the assay, DIF-3 was not produced”.

With `CCCCCC(=O)c1c(O)cc(OC)c(Cl)c1O` [DIF-3], the “DIF-1 dechlorination assay with TLC, purified protein; further dechlorinated at” value in data set [2] was “only appears after all DIF-1 has been converted into the monochlorinated form, suggesting a lower affinity”.

In the case of `CCCCCC(=O)c1c(O)c(Cl)c(OC)c(SC[C@H](NC(=O)CC[C@H](N)C(=O)O)C(=O)NCC(=O)O)c1O` [GS-DIF], the “TLC time course and Orbitrap MS of products of the purified mutant; further conv” value on DrcA (ΔNC16NDrcA) [3] is “ΔNC16NDrcA must be able to accommodate the conjugate GS-DIF to attack the second carbon-chlorine bond”.

B1: DrcA (DIF-1 dechlorinase) (Dictyostelium discoideum) (protein)
chain: SEGVADYQVYGFYTSCSFKVYFMFEELNIPYQTCLVNIRSGEHFKGEFAEMSPNNKIPMLIDNTYSVDSGDDDEPLKIFESGAILLYLAEKYQKFLPPLSKPKERCQVQQWLSWQISEMQPALTSYVYYFMMAPEPVAFGMEKADQDLHKILKVLDKRLDDGRKYICNEFSIADIACFGFGSYFNLNVFKGWNKYENVVRWVNTMSSRPSISKLLPIVEQTLRVRKLKRLDNQELVL
notes: ΔNDrcA, lacking the first 38 residues, C-terminal 6×His tag
As for B1, in data set [4], the Km is 0.088 ± 0.0175 µM, the kcat was determined as 6.7 s⁻¹ and the kcat/Km amounted to 7.6e+07 M⁻¹ s⁻¹.
